Measured values as given in the supplement of paper PMC10307832.

Columns and labels:
Experiment in all cases: relative viability (nuclei count vs DMSO), 5 days (fraction); higher = more cells survive
[1] = compound: Nc1ccn([C@@H]2O[C@H](CO)[C@@H](O)C2(F)F)c(=O)n1 [Gemcitabine] + CC(=O)Nc1cccc(-n2c(=O)n(C3CC3)c(=O)c3c(Nc4ccc(I)cc4F)n(C)c(=O)c(C)c32)c1 [Trametinib] (partner 0.02 µM)
Outline: (§1)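 Values are medians from duplicate plates. Each reflects relative viability, defined as the nuclei count of treated wells over that of vehicle wells. Lung cancer cell lines in 1536-well plates were pin-tool dosed one day after seeding with one drug alone or with a fixed anchor-drug dose plus five library-drug doses (not always all listed) in √10 steps, then fixed, stained and imaged at 4× after 5 days.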

[2] = compound: Nc1ccn([C@@H]2O[C@H](CO)[C@@H](O)C2(F)F)c(=O)n1 [Gemcitabine] + COc1cccc2cc(-c3nc([C@H]4CC[C@H](C(=O)O)CC4)n4ncnc(N)c34)[nH]c12 [OSI-027] (partner 0.5 µM)
Outline: as §1

[3] = compound: Nc1ccn([C@@H]2O[C@H](CO)[C@@H](O)C2(F)F)c(=O)n1 [Gemcitabine] + CS(=O)(=O)CCNCc1ccc(-c2ccc3ncnc(Nc4ccc(OCc5cccc(F)c5)c(Cl)c4)c3c2)o1 [Lapatinib] (partner 2 µM)
Outline: as §1

[4] = compound: Nc1ccn([C@@H]2O[C@H](CO)[C@@H](O)C2(F)F)c(=O)n1 [Gemcitabine] + C[C@]1(O)C[C@@H](c2nc(-c3ccc4ccc(-c5ccccc5)nc4c3)c3c(N)nccn32)C1 [Linsitinib] (partner 1 µM)
Outline: as §1

Cell Line | relative viability ([1]; first compound 0.001 µM) | relative viability ([1]; first compound 0.003162 µM) | relative viability ([1]; first compound 0.01 µM) | relative viability ([1]; first compound 0.03162 µM) | relative viability ([1]; first compound 0.1 µM) | relative viability ([2]; first compound 0.001 µM) | relative viability ([2]; first compound 0.003162 µM) | relative viability ([2]; first compound 0.01 µM) | relative viability ([2]; first compound 0.03162 µM) | relative viability ([2]; first compound 0.1 µM) | relative viability ([3]; first compound 0.001 µM) | relative viability ([3]; first compound 0.003162 µM) | relative viability ([3]; first compound 0.01 µM) | relative viability ([3]; first compound 0.03162 µM) | relative viability ([3]; first compound 0.1 µM) | relative viability ([4]; first compound 0.001 µM) | relative viability ([4]; first compound 0.003162 µM) | relative viability ([4]; first compound 0.01 µM) | relative viability ([4]; first compound 0.03162 µM) | relative viability ([4]; first compound 0.1 µM)
NCI-H23 | 0.277 | 0.179 | 0.121 | 0.12 | 0.1 | 0.544 | 0.272 | 0.127 | 0.151 | 0.108 | 0.794 | 0.601 | 0.14 | 0.159 | 0.109 | 0.447 | 0.226 | 0.123 | 0.11 | 0.118
NCI-H322M | 0.47 | 0.327 | 0.394 | 0.382 | 0.385 | 0.348 | 0.376 | 0.258 | 0.256 | 0.278 | 0.61 | 0.362 | 0.239 | 0.227 | 0.217 | 0.777 | 0.474 | 0.3 | 0.274 | 0.267
NCI-H358 | 0.11 | 0.107 | 0.0776 | 0.0818 | 0.0722 | 0.523 | 0.114 | 0.0702 | 0.0815 | 0.0642 | 0.436 | 0.398 | 0.203 | 0.212 | 0.156 | 0.653 | 0.327 | 0.186 | 0.23 | 0.157
NCI-H460 | 0.105 | 0.211 | 0.0498 | 0.0169 | 0.0076 | 0.838 | 0.76 | 0.26 | 0.0217 | 0.0185 | 1.05 | 1.11 | 0.278 | 0.0125 | 0.009 | 0.714 | 0.878 | 0.0967 | 0.0138 | 0.0057
NCI-H520 | 0.848 | 0.752 | 0.159 | 0.143 | 0.144 | 0.306 | 0.296 | 0.254 | 0.189 | 0.156 | 0.901 | 1.11 | 0.474 | 0.186 | 0.121 | 1.13 | 0.917 | 0.482 | 0.186 | 0.131
NCI-H596 | 0.918 | 0.593 | 0.392 | 0.336 | 0.321 | 0.659 | 0.604 | 0.392 | 0.232 | 0.193 | 1.01 | 1.07 | 0.739 | 0.424 | 0.373 | 1.11 | 1.06 | 0.727 | 0.384 | 0.357
NCI-H647 | 0.404 | 0.286 | 0.117 | 0.0909 | 0.0535 | 0.408 | 0.128 | 0.0727 | 0.0897 | 0.0704 | 0.742 | 0.28 | 0.0986 | 0.0734 | 0.0451 | 1.27 | 0.382 | 0.0832 | 0.0779 | 0.0445
NCI-H650 | 0.809 | 0.469 | 0.126 | 0.141 | 0.129 | 0.46 | 0.24 | 0.194 | 0.153 | 0.169 | 0.606 | 0.269 | 0.299 | 0.149 | 0.161 | 0.634 | 0.282 | 0.21 | 0.153 | 0.147
NCI-H661 | 0.568 | 0.606 | 0.464 | 0.281 | 0.223 | 0.767 | 0.597 | 0.374 | 0.204 | 0.208 | 0.618 | 0.47 | 0.287 | 0.216 | 0.171 | 0.534 | 0.406 | 0.245 | 0.198 | 0.15
NCI-H727 | 0.447 | 0.355 | 0.33 | 0.327 | 0.328 | 0.586 | 0.409 | 0.353 | 0.327 | 0.297 | 0.843 | 0.561 | 0.262 | 0.239 | 0.281 | 0.325 | 0.277 | 0.236 | 0.219 | 0.213
NCI-H838 | 0.51 | 0.621 | 0.561 | 0.274 | 0.127 | 0.367 | 0.441 | 0.3 | 0.245 | 0.124 | 1.02 | 1.22 | 0.923 | 0.282 | 0.103 | 1.05 | 1.12 | 0.933 | 0.328 | 0.14
NCI-H1355 | 0.426 | 0.363 | 0.245 | 0.189 | 0.154 | 0.362 | 0.28 | 0.159 | 0.178 | 0.173 | 0.884 | 0.825 | 0.304 | 0.153 | 0.153 | 0.816 | 0.606 | 0.221 | 0.123 | 0.129
NCI-H1395 | 1.01 | 0.841 | 0.554 | 0.424 | 0.359 | 0.705 | 0.493 | 0.391 | 0.313 | 0.303 | 1.02 | 0.725 | 0.448 | 0.32 | 0.33 | 1.02 | 0.814 | 0.565 | 0.407 | 0.334
NCI-H1437 | 0.523 | 0.611 | 0.384 | 0.241 | 0.164 | 0.822 | 0.734 | 0.452 | 0.297 | 0.181 | 0.828 | 0.737 | 0.402 | 0.157 | 0.0977 | 1.05 | 0.875 | 0.406 | 0.213 | 0.105
NCI-H1651 | 0.828 | 0.813 | 0.826 | 0.185 | 0.114 | 0.607 | 0.75 | 0.557 | 0.248 | 0.117 | 0.863 | 1 | 0.678 | 0.165 | 0.0838 | 0.884 | 1.04 | 0.69 | 0.211 | 0.0842
NCI-H1666 | 0.795 | 0.946 | 0.773 | 0.655 | 0.554 | 0.87 | 0.821 | 0.752 | 0.5 | 0.479 | 0.617 | 0.708 | 0.512 | 0.265 | 0.239 | 0.789 | 0.882 | 0.435 | 0.286 | 0.285
NCI-H1734 | 0.705 | 0.44 | 0.193 | 0.135 | 0.1 | 0.506 | 0.343 | 0.166 | 0.121 | 0.111 | 0.985 | 0.97 | 0.421 | 0.165 | 0.0939 | 0.909 | 0.806 | 0.457 | 0.129 | 0.13
NCI-H1755 | 0.759 | 0.749 | 0.736 | 0.616 | 0.328 | 0.789 | 0.715 | 0.57 | 0.34 | 0.272 | 0.962 | 1.04 | 0.959 | 0.35 | 0.265 | 0.957 | 1.06 | 0.975 | 0.347 | 0.259
NCI-H1792 | 0.414 | 0.183 | 0.0715 | 0.0564 | 0.0677 | 0.639 | 0.486 | 0.285 | 0.227 | 0.154 | 0.948 | 0.806 | 0.239 | 0.107 | 0.0773 | 0.561 | 0.363 | 0.131 | 0.109 | 0.0721
NCI-H1793 | 0.385 | 0.45 | 0.256 | 0.187 | 0.15 | 0.236 | 0.286 | 0.205 | 0.159 | 0.116 | 1.07 | 0.734 | 0.489 | 0.244 | 0.166 | 1 | 0.857 | 0.539 | 0.16 | 0.135
NCI-H1915 | 0.317 | 0.308 | 0.286 | 0.281 | 0.188 | 0.714 | 0.63 | 0.545 | 0.479 | 0.241 | 0.938 | 0.877 | 0.949 | 0.925 | 0.597 | 1.12 | 1.09 | 1.11 | 0.92 | 0.442
NCI-H1944 | 0.418 | 0.416 | 0.364 | 0.28 | 0.154 | 0.453 | 0.437 | 0.385 | 0.188 | 0.149 | 0.848 | 0.847 | 0.804 | 0.45 | 0.24 | 1.24 | 1.15 | 1.17 | 0.509 | 0.259
NCI-H1975 | 0.305 | 0.447 | 0.367 | 0.124 | 0.135 | 0.867 | 0.839 | 0.327 | 0.148 | 0.125 | 0.983 | 1.1 | 0.725 | 0.245 | 0.179 | 1.1 | 1.04 | 0.586 | 0.218 | 0.191
NCI-H1993 | 0.508 | 0.457 | 0.503 | 0.351 | 0.438 | 0.539 | 0.534 | 0.541 | 0.503 | 0.518 | 0.77 | 0.769 | 0.853 | 0.546 | 0.495 | 0.689 | 0.723 | 0.622 | 0.599 | 0.579
NCI-H2009 | 0.268 | 0.327 | 0.16 | 0.115 | 0.088 | 0.566 | 0.303 | 0.167 | 0.133 | 0.111 | 0.929 | 0.624 | 0.205 | 0.129 | 0.192 | 1.23 | 0.722 | 0.29 | 0.156 | 0.119
NCI-H2023 | 0.567 | 0.577 | 0.266 | 0.152 | 0.0796 | 0.417 | 0.342 | 0.128 | 0.0817 | 0.0589 | 1.04 | 0.99 | 0.424 | 0.127 | 0.0738 | 0.8 | 0.631 | 0.478 | 0.0945 | 0.0741
